Experimental data as given in ChEMBL document CHEMBL1201862, “PubChem BioAssay data set” (2004).
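A five-concentration, 48-hour dose response in 96-well plates underlies each endpoint, interpolated linearly between surrounding concentrations. GI50: concentration for 50% inhibition of growth.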 The source made the active and inactive calls. Rule as the data show it: active = GI50 up to about 1.1 µM and inactive = higher.

How the values were obtained:
Assay in all cases: DTP human tumour cell line panel, 48 h
CCRF-CEM = system: CCRF-CEM
HOP-62 = system: HOP-62
U-251 = system: U-251
SN12C = system: SN12C
UACC-257 = system: UACC-257
UACC-62 = system: UACC-62
SK-OV-3 = system: SK-OV-3
SK-MEL-5 = system: SK-MEL-5
TK-10 = system: TK-10
786-0 = system: 786-0
CAKI-1 = system: CAKI-1
M14 = system: M14
LOX IMVI = system: LOX IMVI
HOP-92 = system: HOP-92
SW-620 = system: SW-620
SK-MEL-2 = system: SK-MEL-2
EKVX = system: EKVX
HCC 2998 = system: HCC 2998
SNB-19 = system: SNB-19

Measured: GI50

O=[N+]([O-])c1ccc(Cl)c(C2CC(c3cccc4ccccc34)=Nc3ccccc3S2)c1 (stereo not given)
inactive: CCRF-CEM 3.43 µM | HOP-62 55.7 µM | U-251 20.5 µM | SN12C 21 µM | UACC-257 31.6 µM | UACC-62 15.4 µM | SK-OV-3 > 84.7 µM | SK-MEL-5 16.7 µM | TK-10 41 µM | 786-0 12.4 µM | CAKI-1 21.9 µM | M14 20.6 µM | LOX IMVI 20 µM | HOP-92 2.64 µM | SW-620 18.8 µM | SK-MEL-2 21.7 µM | EKVX 70.8 µM | HCC 2998 69 µM | SNB-19 44.4 µM

CCO[C@@]1(COCc2ccccc2)OC(=O)C[C@@H]1N1C(=O)OC[C@@H]1c1ccccc1
inactive: CCRF-CEM > 100 µM | HOP-62 26.6 µM | U-251 > 100 µM | SN12C > 100 µM | UACC-257 > 100 µM | UACC-62 > 100 µM | SK-OV-3 > 100 µM | SK-MEL-5 > 100 µM | TK-10 > 100 µM | 786-0 > 100 µM | CAKI-1 25.8 µM | M14 > 100 µM | LOX IMVI > 100 µM | HOP-92 > 100 µM | SW-620 > 100 µM | SK-MEL-2 > 100 µM | EKVX > 100 µM | HCC 2998 > 100 µM | SNB-19 > 100 µM

N#Cc1ccccc1NC(=O)/C(=N\Nc1ccc([N+](=O)[O-])cc1)C1C(=O)NC(=O)NC1=O
inactive: CCRF-CEM > 100 µM | HOP-62 > 100 µM | U-251 > 100 µM | UACC-257 > 100 µM | UACC-62 > 100 µM | SK-OV-3 > 100 µM | SK-MEL-5 > 100 µM | TK-10 > 100 µM | 786-0 > 100 µM | CAKI-1 31.4 µM | M14 > 100 µM | LOX IMVI > 100 µM | HOP-92 3.69 µM | SW-620 > 100 µM | SK-MEL-2 > 100 µM | EKVX > 100 µM | HCC 2998 > 100 µM | SNB-19 > 100 µM

O=C(C(=O)n1ncc(Cl)c(Cl)c1=O)n1ncc(Cl)c(Cl)c1=O
inactive: CCRF-CEM 6.85 µM | HOP-62 > 100 µM | U-251 35.7 µM | SN12C 24.4 µM | UACC-257 19.5 µM | UACC-62 15.1 µM | SK-OV-3 > 53.8 µM | SK-MEL-5 35.5 µM | TK-10 27.4 µM | 786-0 19.5 µM | CAKI-1 17.7 µM | M14 25.1 µM | LOX IMVI 30.1 µM | HOP-92 23.2 µM | SW-620 19.4 µM | SK-MEL-2 23.3 µM | EKVX 40.4 µM | HCC 2998 23.3 µM | SNB-19 > 100 µM

CCn1c(C)nn2c(=O)c3ccccc3nc2c1=O
inactive: CCRF-CEM > 100 µM | HOP-62 > 100 µM | U-251 > 100 µM | UACC-257 > 100 µM | UACC-62 > 100 µM | SK-OV-3 > 100 µM | SK-MEL-5 > 100 µM | TK-10 > 100 µM | 786-0 > 100 µM | CAKI-1 > 100 µM | M14 > 100 µM | LOX IMVI > 100 µM | HOP-92 59.7 µM | SW-620 > 100 µM | SK-MEL-2 > 100 µM | EKVX > 100 µM | HCC 2998 > 100 µM

CC1(C(=O)Nc2ccc3cc4ccccc4cc3c2)CC2(C)CC(C)(C1)C(O)NC2=O (stereo not given)
inactive: CCRF-CEM 34.4 µM | HOP-62 > 100 µM | U-251 > 100 µM | SN12C > 100 µM | UACC-257 > 100 µM | UACC-62 > 100 µM | SK-OV-3 > 100 µM | SK-MEL-5 > 100 µM | TK-10 63 µM | 786-0 > 100 µM | CAKI-1 > 100 µM | M14 > 100 µM | LOX IMVI 62.4 µM | HOP-92 59.3 µM | SW-620 > 100 µM | SK-MEL-2 > 100 µM | EKVX > 100 µM | HCC 2998 > 100 µM
